# In patent publication US20260284020A1, “LATS KINASE INHIBITOR TO TREAT RETINAL DEGENERATION” (Children's Hospital Los Angeles, priority 2023, published 2026):
# “Also recorded” adds a separate entry of the source.
# Tested on: primary human fetal RPE monolayers
# Test: In vitro wound healing (scratch) assay in RPE monolayers
# Type: cell-based
# Conditions: for wound healing (wound closure, change in wound area as a percentage): 1 μM, mean±SE
# Experimental: Approximately 72 hours before wound induction, culture media for primary human fetal RPE either remained supplemented with 5% FBS as above (FBS-containing condition) or was replaced with culture media not containing FBS (FBS-free condition). Culture media for iPSC-derived RPE either remained as X-VIVO media as above (FBS-free condition) or was supplemented with 5% FBS (FBS-containing condition).
# Following 72-hour acclimation period, RPE monolayers were then subjected to a controlled horizontal scratch using the WoundMaker Tool™ (Essen BioScience Ltd., Welwyn Garden City, United Kingdom) according to the protocol provided by the manufacturer. Wells were subsequently washed 1-2 times with their respective media in order to remove cell debris. Cells were then treated with either 1 μM DMSO (as control) or 1 μM TDI-011536 dissolved in either FBS-containing or FBS-free media. To label and track proliferating cells, cells were incubated with 10 μM 5-Ethynyl-2′-deoxyuridine (EdU) for 96 hours.
# Each well was imaged immediately following the scratch injury with a DMI6000B microscope equipped with 10×/0.3 HC PL FLUOTAR Ph1 (Leica Microsystems, Buffalo Grove, IL) and ORCA-Flash4.0 LT camera (Hamamatsu Corp., Bridgewater, NJ). Along the length of each scratch, 2-3 ROIs measuring 1100 μm in length were imaged again 24, 48, 72, and 96 hours after the scratch injury. All ROIs were positioned in the central portion of the scratch. Coordinates of ROIs within each well were stored using Leica Application Suite X software. Non-uniform scratches and/or those with small width or resulting in monolayer detachment were excluded.
# Scratch areas in μm^2 for each ROI were obtained using the Wand Tool in QuPath at each time point (e.g., 0, 24, 48, 72, and 96 hours after the scratch). Wound healing was quantified as the difference in scratch area at each time point normalized to (e.g., divided by) the total area immediately post-scratch, expressed as a percentage.
# A wound healing assay, which involves creating a uniform scratch on a confluent monolayer of cells, is a commonly used method to study response to injury in vitro. To assess whether Hippo pathway inhibition promotes RPE regeneration, a wound healing assay was performed on primary human fetal RPE monolayers grown on 96-well plates in various culture conditions. RPE monolayers were subjected to a horizontal scratch and incubated with EdU and either LKI or vehicle. Wound closure was monitored every 24 hours for 96 hours total (FIGS. 1A and 1B).
structure (smiles),measurement,setting,value
O=C(/N=c1\scc(CO)n1Cc1ccccc1)c1c[nH]c2ncccc12 [TDI-011536],"wound healing (wound closure, change in wound area as a percentage)","24 hours after scratch, FBS-free media",25.06±0.96%
same,"difference in wound closure, LKI compared to control","24 hours, FBS-free media",8.25±1.49%
same,"wound healing (wound closure, change in wound area as a percentage)","48 hours after scratch, FBS-free media",58.72±1.37%
same,"difference in wound closure, LKI compared to control","48 hours, FBS-free media",17.53±2.00%
same,"wound healing (wound closure, change in wound area as a percentage)","72 hours after scratch, FBS-free media",85.14±1.16%
same,"difference in wound closure, LKI compared to control","72 hours, FBS-free media",19.78±1.81%
same,"wound healing (wound closure, change in wound area as a percentage)","96 hours after scratch, FBS-free media",91.14±1.17%
same,"difference in wound closure, LKI compared to control","96 hours, FBS-free media",14.02±1.85%
same,wound closure compared to DMSO (in words),"FBS-containing media, all timepoints",significantly increased wound closure at all timepoints
same,wound closure compared to control (in words),"FBS-free media, all time points 24-96 hours, listed as LKI",significantly increased at all time points; also recorded: significantly improved wound closure at all time points
